What was measured:
[1] = test system: E. multilocularis metacestode vesicles; assay: Metacestode vesicle viability assay (ATP, CellTiter-Glo); format: cell-based, Echinococcus multilocularis; details: 10 μM, 12 days
Protocol: Viability was assessed after 12 days using the same metacestode vesicles as for the PGI release assay. Triton X-100 was added to each well to a final concentration of 0.1 %. Subsequently the metacestode vesicles were broken mechanically and 50 μL of the supernatant was mixed with 50 μL of CellTiter-Glo® buffer (Promega, Dübendorf, Switzerland). Measurements were performed on a HIDEX Sense microplate reader.

[2] = test system: E. multilocularis metacestode vesicles; assay: Phosphoglucose isomerase (PGI) release assay (damage-marker release) on metacestode vesicles; format: cell-based, Echinococcus multilocularis; details: 10 μM; for PGI d5 (relative PGI release): 5 days; for PGI d12 (relative PGI release): 12 days
[3] = overview screen, singlets, relative to DMSO control
[4] = overview screen, singlets, relative to 0.1 % Triton X-100, DMSO subtracted
[5] = confirmation screen, triplicates, mean

For `CCN(CC)S(=O)(=O)c1ccc(Cl)c(C(=O)Nc2sc3c(c2C#N)CCCC3)c1` [MMV1634384], the “Viability d12 (relative viability)” value [1, 3] was 106.793%, the “PGI d5 (relative PGI release)” value [2, 4] was 0.5897% and the “PGI d12 (relative PGI release)” value [2, 4] was 3.142%.
`Nc1ccc(-c2nc3cc(C(F)(F)F)ccc3n2C23CC4CC(CC(C4)C2)C3)cc1` [MMV1634385] was tested, and the “Viability d12 (relative viability)” value [1, 3] was 100.869%, the “PGI d5 (relative PGI release)” value [2, 4] was 1.378% and the “PGI d12 (relative PGI release)” value [2, 4] was 1.206%.
In the case of `O[C@@](Cn1cnnn1)(c1ccc(F)cc1F)C(F)(F)c1ccc(-c2ccc(OCC(F)(F)F)cc2)cn1` [MMV1634386], the “Viability d12 (relative viability)” value [1, 3] is reported as 107.711%, the “PGI d5 (relative PGI release)” value [2, 4] is reported as -2.798% and the “PGI d12 (relative PGI release)” value [2, 4] is reported as -27.2627%.
For `CC(C)(C)c1ccc(OCCn2nc(C(=O)O)c3ccccc3c2=O)cc1` [MMV1634387], the “Viability d12 (relative viability)” value [1, 3] was 144.45%, the “PGI d5 (relative PGI release)” value [2, 4] was -1.414% and the “PGI d12 (relative PGI release)” value [2, 4] was -12.4336%.
`CC(C)N(c1cc(-c2ccccc2)sc1C(=O)O)C(=O)[C@H]1CC[C@H](C)CC1` [MMV1634388] was tested, and the “Viability d12 (relative viability)” value [1, 5] was 128.08%, the “Viability d12 (relative viability)” value [1, 3] was 13.9085% and the “PGI d5 (relative PGI release)” value [2, 5] was 0.59%. For the same compound, the “PGI d12 (relative PGI release)” value [2, 5] was 0.29%, the “PGI d5 (relative PGI release)” value [2, 4] was 1.026% and the “PGI d12 (relative PGI release)” value [2, 4] was 40.2559%.
`CCNC(=O)Nc1cc2c(-c3ccnc(C)c3)ccc(CNC(=O)OC)c2cn1` [MMV1634390] was tested, and the “Viability d12 (relative viability)” value [1, 3] was 29.4745%, the “PGI d5 (relative PGI release)” value [2, 4] was 1.116% and the “PGI d12 (relative PGI release)” value [2, 4] was -26.1278%.
In the case of `Cn1cc(NC(=O)c2cc(NC(=O)c3ccc(/C=C/c4cnc5ccccc5c4)cc3)cn2C)cc1C(=O)NCCN1CCOCC1` [MMV1634391], the “Viability d12 (relative viability)” value [1, 3] is reported as 70.2948%, the “PGI d5 (relative PGI release)” value [2, 4] is reported as -0.2305% and the “PGI d12 (relative PGI release)” value [2, 4] is reported as 21.1965%.
`CCCCc1ccc(-c2nc(C)c(C(=O)OC)s2)cc1` [MMV1634392] was tested, and the “Viability d12 (relative viability)” value [1, 3] was 152.475%, the “PGI d5 (relative PGI release)” value [2, 4] was 0.3728% and the “PGI d12 (relative PGI release)” value [2, 4] was 0.05977%.
With `CC(C)(C)c1ccc(C(Cn2cccc(C(F)(F)F)c2=O)NC2Cc3ccccc3C2)cc1` (stereo not drawn) [MMV1634393] the “Viability d12 (relative viability)” value [1, 3] was 102.314%, the “PGI d5 (relative PGI release)” value [2, 4] was -0.3467% and the “PGI d12 (relative PGI release)” value [2, 4] was 0.3021%.
With `Cc1ccc(N2CCC(CCOc3ccc(S(C)(=O)=O)cc3)CC2)nn1` [MMV1634394] the “Viability d12 (relative viability)” value [1, 3] was 249.705%, the “PGI d5 (relative PGI release)” value [2, 4] was 0.369% and the “PGI d12 (relative PGI release)” value [2, 4] was -19.1494%.
`CCc1c(O)nc2ccc(F)cc2c1OCC1CCC1` [MMV1634395] was tested, and the “Viability d12 (relative viability)” value [1, 3] was 119.991%, the “PGI d5 (relative PGI release)” value [2, 4] was -0.4952% and the “PGI d12 (relative PGI release)” value [2, 4] was -17.3568%.
For `O=C(c1nc2c(C(F)(F)F)cc(C3CC3)cn2c1Cl)N1CCN([C@H]2CC[C@H](O)CC2)C(=O)C1` [MMV1634396], the “Viability d12 (relative viability)” value [1, 3] was 113.417%, the “PGI d5 (relative PGI release)” value [2, 4] was 0.0006202% and the “PGI d12 (relative PGI release)” value [2, 4] was 0.1204%.
In the case of `COc1ccc(CNC(=O)C2CCN(C(C)c3cccc4ccccc34)CC2)cc1` (stereo not drawn) [MMV1634397], the “Viability d12 (relative viability)” value [1, 3] is reported as 68.3168%, the “PGI d5 (relative PGI release)” value [2, 4] is reported as 1.669% and the “PGI d12 (relative PGI release)” value [2, 4] is reported as -0.9153%.
With `CCOc1ccc(/C=N/NC(=O)C2CC2c2ccc(C(C)(C)C)cc2)cc1OCC` (stereo not drawn) [MMV1634398] the “Viability d12 (relative viability)” value [1, 3] was 324.092%, the “PGI d5 (relative PGI release)” value [2, 4] was 0.06885% and the “PGI d12 (relative PGI release)” value [2, 4] was 0.3627%.
For `Cc1nc2ccc(Oc3ccccc3)cc2c2c1CCN2CCc1ccccc1` [MMV1634399], the “Viability d12 (relative viability)” value [1, 5] was 116.13%, the “Viability d12 (relative viability)” value [1, 3] was 23.583% and the “PGI d5 (relative PGI release)” value [2, 5] was 0.85%. For the same compound, the “PGI d12 (relative PGI release)” value [2, 5] was 15.15%, the “PGI d5 (relative PGI release)” value [2, 4] was 25.5463% and the “PGI d12 (relative PGI release)” value [2, 4] was 44.1623%.
In the case of `Cc1ccc(C)c(OCCCCCCN2C[C@H](O)[C@@H](O)[C@H](O)[C@H]2CO)c1` [MMV1634401], the “Viability d12 (relative viability)” value [1, 5] is reported as 146.24%, the “Viability d12 (relative viability)” value [1, 3] is reported as 26.5643% and the “PGI d5 (relative PGI release)” value [2, 5] is reported as 1.51%. The “PGI d12 (relative PGI release)” value [2, 5] was 2.13%, the “PGI d5 (relative PGI release)” value [2, 4] was 8.592% and the “PGI d12 (relative PGI release)” value [2, 4] was 62.8936%.
In the case of `NC(N)=NCCCCC(=O)Nc1cc(C(F)(F)F)cc(NC(=O)c2cc(C(=O)Nc3cc(C(F)(F)F)cc(NC(=O)CCCCN=C(N)N)c3O[C@@H]3CCNC3)ncn2)c1O[C@@H]1CCNC1` [MMV1634402], the “Viability d12 (relative viability)” value [1, 3] is reported as 96.1157%, the “PGI d5 (relative PGI release)” value [2, 4] is reported as -1.176% and the “PGI d12 (relative PGI release)” value [2, 4] is reported as 3.242%.
`CS(=O)(=O)c1ccc(Oc2ccc(Cl)cc2)cc1` [MMV1634404] was tested, and the “Viability d12 (relative viability)” value [1, 3] was 57.7676%, the “PGI d5 (relative PGI release)” value [2, 4] was -0.3308% and the “PGI d12 (relative PGI release)” value [2, 4] was -18.6197%.
In the case of `O=C(/C(=C/c1ccc(Cl)cc1Cl)n1ccnc1)c1ccc(Cl)cc1` [MMV1634491], the “Viability d12 (relative viability)” value [1, 5] is reported as 83.69%, the “Viability d12 (relative viability)” value [1, 3] is reported as 14.6955% and the “PGI d5 (relative PGI release)” value [2, 5] is reported as 0.16%. For the same compound, the “PGI d12 (relative PGI release)” value [2, 5] was 5.15%, the “PGI d5 (relative PGI release)” value [2, 4] was 24.947% and the “PGI d12 (relative PGI release)” value [2, 4] was 25.566%.
With `Clc1cc(Cl)c2c(c1)CCc1ccccc1C2n1ccnc1` (stereo not drawn) [MMV1634492] the “Viability d12 (relative viability)” value [1, 3] was 206.655%, the “PGI d5 (relative PGI release)” value [2, 4] was -1.087% and the “PGI d12 (relative PGI release)” value [2, 4] was -25.0724%.

Reference: publication PMC12410356 (International Journal for Parasitology: Drugs and Drug …, 2025)
